The results in this text go back to ChEMBL document CHEMBL3860062, “Synthesis and biological evaluation of novel hydrogen sulfide releasing nicotinic acid derivatives” (Bioorg Med Chem, 2016).

Series [1] has as its system HT-22. The experiment in a line: Neuroprotective activity against glutamate-induced neuronal cell damage in mouse HT22 cells assessed as cell survival rate at 1 uM after 24 hrs by MTT assay (reference value: 12.49 to 43.44%). The format is functional. To be noted: HT-22, 24 h, read-out: Survival.
Series [2] relates to HT-22. The series can be described thus: Neuroprotective activity against glutamate-induced neuronal cell damage in mouse HT22 cells assessed as cell survival rate at 10 uM after 24 hrs by MTT assay (reference value: 12.49 to 43.44%). The format is functional. To be noted: HT-22, 24 h, read-out: Survival.
The subject of series [3] is HT-22. The series can be described thus: Neuroprotective activity against glutamate-induced neuronal cell damage in mouse HT22 cells assessed as cell survival rate at 50 uM after 24 hrs by MTT assay (reference value: 12.49 to 43.44%). The format is functional. The note with it: HT-22, 24 h, read-out: Survival. On the technique in general: Formazan colour is commonly taken as a measure of viable cells.

Series [4] deals with HT-22. The experiment in a line: Neuroprotective activity against glutamate-induced neuronal cell damage in mouse HT22 cells assessed as cell survival rate at 100 uM after 24 hrs by MTT assay (reference value: 12.49 to 43.44%). The format is functional. The note with it: HT-22, 24 h, read-out: Survival.
Series [5] can be described thus: Cytotoxicity against mouse HT22 cells assessed as cell survival rate at 100 uM after 24 hrs by MTT assay. The format is toxicity, HT-22. To be noted: read-out: Survival.
In series [6] the test system is HT-22. The series can be described thus: Neuroprotective activity against glutamate-induced neuronal cell damage in mouse HT22 cells assessed as increase in cell viability at 1 to 100 uM after 24 hrs by MTT assay relative to glutamate. The format is functional.
For series [7], the system named is Mus musculus. The experiment in a line: Protection against focal cerebral ischemia in ICR mouse model of […] assessed as infarct volume of […] at 100 mg/kg, ip dosed 3 hrs post reperfusion measured 48 hrs post MCAO by TTC staining based assay (reference value: 62.75%). The format is functional.
Series [8] deals with Mus musculus. The experiment in a line: Protection against focal cerebral ischemia in ICR mouse model of […] assessed as infarct volume of striatum at 100 mg/kg, ip dosed 3 hrs post reperfusion measured 48 hrs post MCAO by TTC staining based assay (reference value: 56.18%). The format is functional.
Series [9] has as its system Mus musculus. The experiment in a line: Protection against focal cerebral ischemia in ICR mouse model of […] assessed as infarct volume of hemisphere at 100 mg/kg, ip dosed 3 hrs post reperfusion measured 48 hrs post MCAO by TTC staining based assay (reference value: 44.98%). The format is functional.
The subject of series [10] is Mus musculus. The series can be described thus: Protection against focal cerebral ischemia in ICR mouse model of […] assessed as reduction in infarct volume administered ip 3 hrs post reperfusion measured 48 hrs post MCAO by TTC staining based assay. The format is functional.
A further series has as its system Rattus norvegicus. The series can be described thus: Protection against focal cerebral ischemia in Wistar rat model of […] assessed as reduction in infarction volume administered ip at 2 hrs post reperfusion measured 3 days post MCAO. The format is functional.

Turning to `O=C(OCCCCCOc1ccc(-c2cc(=S)ss2)cc1)c1cccnc1`, the viability at 1 µM in the series with HT-22 [1] is 52.9%. Also, the viability at 10 µM in the series on HT-22 [2] was 92.5%. The viability at 50 µM in the series with HT-22 [3] is 93.3%. Besides, the viability at 100 µM with HT-22 [4] was determined as 82.2%. In addition, the viability at 24 h, 100 µM in series [5] is 100%.
Turning to `Oc1ccc(-c2cc(=S)ss2)cc1`, the viability at 1 µM in the series on HT-22 [1] amounted to 33.4%. Besides, the viability at 10 µM in the series with HT-22 [2] is 52.2%. In the series on HT-22 [3], the viability at 50 µM was 104%. In addition, the viability at 100 µM in the series on HT-22 [4] came out at 76.4%.
As to `O=C(OCCCCCCOc1ccc(-c2cc(=S)ss2)cc1)c1cccnc1`, the viability at 1 µM in the series with HT-22 [1] stood at 82.6%. Also, in the series on HT-22 [2], the viability at 10 µM came out at 83.2%. For the same molecule, the viability at 50 µM with HT-22 [3] came out at 78.2%. For the same molecule, the viability at 100 µM with HT-22 [4] amounted to 71.3%. Moreover, the “fold change (FC)” value in the series on HT-22 [6] worked out at 6. In series [5], the viability at 24 h, 100 µM amounted to 100%. The Activity with Mus musculus [7] is 38.01%; in the series with Mus musculus [8] it was 23.04%; in the series with Mus musculus [9] it was 25.93%. Also, the MED in the series with Mus musculus [10] stood at 100 mg/kg.
For `O=C(O)c1cccnc1` [NIACIN], in the series with HT-22 [1], the viability at 1 µM was found to be 56.2%. Besides, the viability at 10 µM in the series on HT-22 [2] came out at 58.9%. Besides, in the series on HT-22 [3], the viability at 50 µM worked out at 63.8%. Besides, the viability at 100 µM in the series with HT-22 [4] was found to be 75.3%.
Regarding `O=C(OCCCOc1ccc(-c2cc(=S)ss2)cc1)c1cccnc1`, the viability at 1 µM with HT-22 [1] was determined as 33.7%. For the same molecule, the viability at 10 µM in the series on HT-22 [2] was determined as 87.2%. In addition, in the series on HT-22 [3], the viability at 50 µM worked out at 93.4%. For the same molecule, the viability at 100 µM in the series on HT-22 [4] came to 89.8%. Also, in series [5], the viability at 24 h, 100 µM came to 100%.
In the same order, the values of `O=C(OCCCCOc1ccc(-c2cc(=S)ss2)cc1)c1cccnc1` are 66.9%, 94.8%, 87.9%, 93.5% and 52.9%.
`O=C(Oc1ccc(-c2cc(=S)ss2)cc1)c1cccnc1`: in the series with HT-22 [1], the viability at 1 µM amounted to 43.3%. Also, the viability at 10 µM in the series on HT-22 [2] stood at 64.2%. In addition, the viability at 50 µM with HT-22 [3] is 82.4%. For the same molecule, the viability at 100 µM in the series with HT-22 [4] was found to be 78.3%. Besides, in series [5], the viability at 24 h, 100 µM stood at 100%.
As to `NC(=O)c1cccnc1` [NIACINAMIDE], in the series on Rattus norvegicus, the MED stood at 500 mg/kg.
Regarding `O=C(N[C@@H](Cc1ccccc1)C(=O)OCCCCOc1ccc(-c2cc(=S)ss2)cc1)c1cccnc1`, in the series on HT-22 [1], the viability at 1 µM came out at 64.7%. Further, the viability at 10 µM in the series on HT-22 [2] was 87.7%. Further, the viability at 50 µM in the series with HT-22 [3] was 101%. Besides, in the series with HT-22 [4], the viability at 100 µM is 101%. Besides, the viability at 24 h, 100 µM in series [5] was found to be 100%.
Take `O=C(OCCCCCCCCOc1ccc(-c2cc(=S)ss2)cc1)c1cccnc1`: in the series on HT-22 [1], the viability at 1 µM came out at 82.5%. Moreover, in the series on HT-22 [2], the viability at 10 µM was 78%. In the series with HT-22 [3], the viability at 50 µM came out at 76.3%. The viability at 100 µM in the series with HT-22 [4] was determined as 82.3%. Besides, the viability at 24 h, 100 µM in series [5] was determined as 100%.
On to `C[C@H](NC(=O)c1cccnc1)C(=O)OCCCCOc1ccc(-c2cc(=S)ss2)cc1`, for which the viability at 1 µM in the series on HT-22 [1] came to 68.7%. In addition, the viability at 10 µM in the series on HT-22 [2] is 75.5%. In the series on HT-22 [3], the viability at 50 µM was found to be 77.9%. In addition, the viability at 100 µM with HT-22 [4] amounted to 71.1%. Besides, in series [5], the viability at 24 h, 100 µM amounted to 100%.
In the case of `O=C(OCCOc1ccc(-c2cc(=S)ss2)cc1)c1cccnc1`, the viability at 1 µM in the series on HT-22 [1] amounted to 57.9%. The viability at 10 µM with HT-22 [2] turned out to be 80.8%. Besides, the viability at 50 µM with HT-22 [3] came to 91.5%. Further, the viability at 100 µM in the series with HT-22 [4] came to 102%. In addition, the viability at 24 h, 100 µM in [5] was determined as 100%.
The like results for `O=C(CNC(=O)c1cccnc1)OCCCCOc1ccc(-c2cc(=S)ss2)cc1` were, in that order, 69.2%, 87.4%, 100%, 99% and 100%.
The like results for `O=C(OCCCCCCCCCOc1ccc(-c2cc(=S)ss2)cc1)c1cccnc1` were, in that order, 108%, 101%, 80.6%, 70.4% and 70.4%.
Regarding `CC(C)[C@H](NC(=O)c1cccnc1)C(=O)OCCCCOc1ccc(-c2cc(=S)ss2)cc1`, the viability at 1 µM in the series on HT-22 [1] was 73.3%. The viability at 10 µM in the series on HT-22 [2] was 72.4%. The viability at 50 µM in the series on HT-22 [3] is 70.8%. Besides, the viability at 100 µM in the series with HT-22 [4] came out at 68.1%. The viability at 24 h, 100 µM in series [5] came to 68%.
